Read-outs that look alike come from different tables or passages of the source. No end group written: not given here.
Tested on: polymorphonuclear leukocyte adhesion to TNF activated endothelial cells
Assay type: cell-based, human
Conditions: for Average % Change of PMN Adhesion to TNF Activated ECs: average over PMN donors (# donors in parentheses); for Percent Change of Adhesion: donor 140 (second line), lower part of Table 4
Procedure: Leukocyte adherence can be measured using several assays known in the art, and the preferred assay is described by Charo, et al., 1985, Blood, 65:473. Briefly, the assay consists of labelling leukocytes with an appropriate label, incubating them with endothelial cells and determining the number of leukocytes that adhere. Preferably the cells are labelled with a gamma ray emitting isotope and the preferred labels are ^111 Indium-oxide or ^51 chromium.
Leukocytes may be isolated from human donors using standard techniques. This generally consists of isolating blood in a physiologically balanced salt solution containing an appropriate anticoagulant, and separating the leukocytes by an appropriate separation step, preferably on Ficoll-Hypaquegradients. Contaminating erythrocytes can be removed by hypotonic lysis. The resulting leukocytes are suspended in a physiologically buffered solution, pH 7.4. The preferred physiological buffered solution is Hank's balanced salt solution that is calcium and magnesium free.
The isolated leukocytes can then be labelled by incubating them for an appropriate time, generally 15 minutes, with the desired radioisotope at a predetermined concentration. The radiolabelled cells are washed to remove unincorporated label, and then suspended in an appropriate solution to perform the adhesion assay described below.
Endothelial cells can be prepared from a number of sources and by several techniques known in the art. Preferably they are obtained from human umbilical veins using the procedure of Charo et al., above. Generally, endothelial cells are isolated by enzymatic digestion of the umbilical veins using, preferably, collagenase as described by Jaffe, E. A., et al., 1973, J. of Clin. Invest, 52:2745. The cells are grown on an appropriate tissue culture substratum, preferably gelatine-coated surfaces.
The endothelial cells may be grown in a variety of tissue culture media containing appropriate supplements such as an appropriate concentration of fetal calf serum, and other supplements/additives routinely utilized by those skilled in this art that are recognized as being favorable for endothelial cells. The endothelial cells may be passaged with a dilute solution of an appropriate protease, and if desired a metal ion chelator. Preferably a solution consisting of 0.05 to 0.25% trypsin and 0.02% EDTA is used. To ensure that the cells are indeed endothelial cells, they are tested by immunofluorescence for Factor VIII antigen, a known endothelial cell marker.
Leukocyte adherence to endothelial cell monolayers may be determined as follows. Early passage endothelial cells, generally not beyond the fifth passage, are cultured on an appropriate substratum and in a suitable cell culture medium. The culture substratum is preferably pre-coated with an appropriate substance that enhances the adherence of the endothelial cells. Several such substances are known including fibronectin, poly-L-lysine, gelatin and laminin. Fibronectin is preferred. An appropriate culture substratum is a 96 well micro titer plate, and a suitable medium is Medium 199 containing fetal calf serum and other supplements known to be beneficial for the growth and maintenance of endothelial cells that are well known to those skilled in the art. Prior to adding a predetermined number of labelled leukocytes, the endothelial cell monolayer is washed with a physiologically balanced salt solution containing a reduced amount of fetal calf serum, preferably 1%. The preferred solution is RPMI supplemented with 1% fetal calf serum.
The endothelial cell monolayer containing added leukocytes is incubated for a time sufficient to permit maximum adherence of the leukocytes, and preferably this is conducted at 37° C. for 30 minutes in an appropriate cell culture atmosphere. Generally this would consist of growing and incubating the cells for the assay period in 5% CO2, 95% air, and 95% humidity. […]

| Sequence | Average % Change of PMN Adhesion to TNF Activated ECs (10^-4 M) | Average % Change of PMN Adhesion to TNF Activated ECs (10^-5 M) | Average % Change of PMN Adhesion to TNF Activated ECs (10^-6 M) | Average % Change of PMN Adhesion to TNF Activated ECs (10^-7 M) | Average % Change of PMN Adhesion to TNF Activated ECs (10^-8 M) | further results |
| --- | --- | --- | --- | --- | --- | --- |
| CRIARLEEKVKTLKAQNSELASTANMLREQVAQLKQKVMNHA [WT, NH2 --Cys--Arg--Ile--Ala--Arg--Leu--Glu--Glu--Lys--Val--Lys--Thr--Leu--Lys--Ala--Gln--Asn--Ser--Glu--Leu--Ala--Ser--Thr--Ala--Asn--Met--Leu--Arg--Glu--Gln--Val--Ala--Gln--Leu--Lys--Gln--Lys--Val--Met--Asn--His--Ala--COOH, reference compound] | -54% | 0% | +22% | +8% | -15% | activity on PMN adhesion at 10^-4 M (in words) (10^-4 M): inhibited polymorphonuclear leukocyte adhesion |
| DAPEGGLDAMMQVA [Peptide 5-14, NH2 --Asp--Ala--Pro--Glu--Gly--Gly--Leu--Asp--Ala--Met--Met--Gln--Val--Ala--COOH] | +9% |  | +7% |  | 0% |  |
| IGWRNVTRLLVFATD [Peptide 4-15, NH2 --Ile--Gly--Trp--Arg--Asn--Val--Thr--Arg--Leu--Leu--Val--Phe--Ala--Thr--Asp--COOH] |  |  |  |  |  | concentration of peak inhibitory activity in the PMN adhesion assay: 10^4 to 10^-5 M; inhibitory activity in the PMN adhesion assay (in words): active; Percent Change of Adhesion (10^-5 M (first column (so in the source))): -53%; Percent Change of Adhesion, Average (10^-5 M, average of donors 140, 195, 363, 515, 140): -5 ± 3%; Percent Change of Adhesion (10^-5 M): 0%; Percent Change of Adhesion, Average (10^-6 M, average of donors 140, 195, 363, 515, 140): -6 ± 2%; Percent Change of Adhesion, Average (1000.0): -17 ± 2%; Percent Change of Adhesion, Average (100000.0): -58 ± 7% |
| SYSMLDDLRNVKKLG [Peptide 1-15, NH2 --Ser--Tyr--Ser--Met--Leu--Asp--Asp--Leu--Arg--Asn--Val--Lys--Lys--Leu--Gly--COOH] | -24% |  | -9% |  | -4% |  |
| RIARLKEKVKTLKAKNSELASTANMLREQVAQLKQKVMNHA [JUN-k, NH2 --Arg--Ile--Ala--Arg--Leu--Lys--Glu--Lys--Val--Lys--Thr--Leu--Lys--Ala--Lys--Asn--Ser--Glu--Leu--Ala--Ser--Thr--Ala--Asn--Met--Leu--Arg--Glu--Gln--Val--Ala--Gln--Leu--Lys--Gln--Lys--Val--Met--Asn--His--Ala--COOH, reference compound] | -25% | -15% | +3% | -7% |  | activity on PMN adhesion at 10^-4 M (in words) (10^-4 M): inhibited polymorphonuclear leukocyte adhesion |
| SSNVVHLIKNAYNKLSS [Peptide 3-17, NH2 --Ser--Ser--Asn--Val--Val--His--Leu--Ile--Lys--Asn--Ala--Tyr--Asn--Lys--Leu--Ser--Ser--COOH] | -13% | +43% | +13% | -18% | -7% |  |
| RIARLEEKVKTLKAENSELASTANMLREEVAQLEQEVMNHA [Peptide 2X, NH2 --Arg--Ile--Ala--Arg--Leu--Glu--Glu--Lys--Val--Lys--Thr--Leu--Lys--Ala--Glu--Asn--Ser--Glu--Leu--Ala--Ser--Thr--Ala--Asn--Met--Leu--Arg--Glu--Glu--Val--Ala--Gln--Leu--Glu--Gln--Glu--Val--Met--Asn--His--Ala--COOH, reference compound] | -38% | -1% |  | -23% | -20% | concentration range over which the peptide had activity on PMN adhesion: 10^-4 to 10^-8 M |
| DGFHFAGDGKLGAI [Peptide 4-14, NH2 --Asp--Gly--Phe--His--Phe--Ala--Gly--Asp--Gly--Lys--Leu--Gly--Ala--Ile--COOH] | -9% | +28% | -4% | +12% | -6% | inhibitory activity in the PMN adhesion assay (in words): little activity |
| KTVLPFVNTHPDKLRN [Peptide 6-16, NH2 --Lys--Thr--Val--Leu--Pro--Phe--Val--Asn--Thr--His--Pro--Asp--Lys--Leu--Arg--Asn--COOH] | +6% |  | -11% |  | -25% |  |
| AHKLAENNIQPIFAVT [Peptide 2-16, NH2 --Ala--His--Lys--Leu--Ala--Glu--Asn--Asn--Ile--Gln--Pro--Ile--Phe--Ala--Val--Thr--COOH] | -7% |  | -1% |  | -2% |  |
